Where a name gives a salt, the structure may show the parent alone. Read-outs that look alike come from different tables or passages of the source.
Assays:
[1] = tested on: Trypanosoma cruzi amastigote infected macrophages; assay: In vitro antiprotozoal activity, Trypanosoma cruzi; assay type: cell-based
Method: (§1) In this table, the in vitro antiprotozoal activities of the indicated compounds were measured as percentage inhibition of Leishmania donovani amastigote infecteda mouse peritoneal macrophages, Trypanosoma cruzi amastigote infected macrophages, and Trypanosoma brucei extracellular bloodstream forms.

[2] = target: T1, Cloned cathepsin S (Homo sapiens, UniProt P25774); assay: Inhibition of cathepsin S, Z-Val-Val-Arg-AMC fluorescence progress curves; assay type: biochemical; conditions: for kobs /[I]* (approximate second-order inactivation constant): values marked *
T1 construct: made in house
T1 sequence (P25774 115-331): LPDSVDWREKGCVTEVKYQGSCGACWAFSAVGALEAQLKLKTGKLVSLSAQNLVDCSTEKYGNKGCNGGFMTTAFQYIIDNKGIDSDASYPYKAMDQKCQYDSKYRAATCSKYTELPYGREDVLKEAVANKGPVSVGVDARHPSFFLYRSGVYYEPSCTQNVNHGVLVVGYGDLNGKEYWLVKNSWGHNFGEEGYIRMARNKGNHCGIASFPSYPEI
Outline: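 Fluorescence (380 nm excitation, 460 nm emission) was followed after adding sub-nM enzyme to pH 6.5 phosphate buffer with DTT, EDTA, Triton, 10 μM Z-VVR-AMC and 30-0.001 μM inhibitor at 25 °C. Fitted kobs values gave apparent kobs/[I]; for some, double-reciprocal plots gave kirr, KI and kirr/KI, KI corrected by 1+[S]/Km.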

[3] = target: T2, Cathepsin B from human placenta (Homo sapiens, UniProt P07858); assay: Inhibition of cathepsin B, Z-Arg-Arg-AMC fluorescence progress curves; assay type: biochemical; conditions: for Ki: corrected for substrate; for k/KI (kirr/KI): values without asterisk, 25° C., pH 6.2
T2 construct: Cathepsin B from human placenta, obtained from Sigma; purchased Sigma; host or cells: human placenta (tissue)
Outline: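 Human placental enzyme (~10 nM) in 50 mM phosphate pH 6.2 with 2.5 mM DTT and 2.5 mM EDTA, 50 μM Z-Arg-Arg-AMC, inhibitors 30-0.001 μM, 25° C. AMC fluorescence (ex 380/em 460 nm) progress curves fitted for kobs; kobs/[I] reported, with kirr, KI and kirr/KI substrate-corrected for selected compounds.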

[4] = tested on: mouse malarial parasite Plasmodium vinckei; assay: In vitro protease activity of malarial parasite, substrate Z-Phe-Arg-AMC; assay type: biochemical; conditions: read-out: P. vinckei IC50 (murine)
Excerpt: (§2) The following table summarizes the comparative IC50 values for selected cysteine protease inhibitors against the human malarial parasite Plasmodium falciparum and the mouse malarial parasite Plasmodium vinckei. The substrate used to measure in vitro protease activity was Z-Phe-Arg-AMC.

[5] = tested on: human malarial parasite Plasmodium falciparum; assay: as above; assay type: biochemical; conditions: read-out: P. falciparum IC50 (human)
Excerpt: as §2

[6] = tested on: Trypanosoma brucei extracellular bloodstream forms; assay: In vitro antiprotozoal activity, Trypanosoma brucei; assay type: cell-based
Method: as §1

[7] = target: cruzain, from T. cruzi (Trypanosoma cruzi, UniProt P25779); assay: Inhibition of cruzain, as for cathepsin L; assay type: biochemical
Sequence of cruzain, from T. cruzi (P25779 123-337 limits assumed): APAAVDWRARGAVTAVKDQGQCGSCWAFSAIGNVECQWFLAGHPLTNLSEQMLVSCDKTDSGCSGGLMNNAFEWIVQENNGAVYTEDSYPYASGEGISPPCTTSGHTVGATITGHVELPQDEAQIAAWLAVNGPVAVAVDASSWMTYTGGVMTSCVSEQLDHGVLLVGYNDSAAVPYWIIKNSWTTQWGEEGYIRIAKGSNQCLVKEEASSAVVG
Outline: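 Run as for cathepsin L with 1 nM cruzain in 50 mM phosphate pH […], 2.5 mM DTT, 2.5 mM EDTA, 5 μM Z-Phe-Arg-AMC, at 25 °C, inhibitors 30-0.001 μM; fluorescence (ex 380/em 460 nm) followed continuously. kobs fitted from progress curves and kobs/[I] reported; selected compounds gave kirr, KI, kirr/KI, with KI corrected by (1+[S]/Km).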

[8] = tested on: Leishmania donovani amastigote infected mouse peritoneal macrophages; assay: In vitro antiprotozoal activity, Leishmania donovani; assay type: cell-based
Method: as §1

[9] = target: T3, Cathepsin L from rat liver (Rattus norvegicus, UniProt P07154); assay: Inhibition of cathepsin L, Z-Phe-Arg-AMC fluorescence progress curves; assay type: biochemical; conditions: for Ki: corrected for substrate; for k/KI (kirr/KI): values without asterisk; for k/KI (kirr/KI) / kobs /[I]* (approximate second-order inactivation constant): 25° C., pH 6.2; for kobs /[I]* (approximate second-order inactivation constant): values marked *
T3 construct: Cathepsin L from rat liver; from tissue; host or cells: rat liver
T3 sequence (P07154 114-288 limits assumed): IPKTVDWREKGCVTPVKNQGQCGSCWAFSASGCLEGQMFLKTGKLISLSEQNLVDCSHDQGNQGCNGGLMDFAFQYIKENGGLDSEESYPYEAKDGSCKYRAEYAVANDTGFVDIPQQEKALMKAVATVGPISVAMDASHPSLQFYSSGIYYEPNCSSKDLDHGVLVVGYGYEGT
T3 sequence (P07154 291-334 limits assumed): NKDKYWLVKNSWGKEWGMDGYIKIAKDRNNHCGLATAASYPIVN
Outline: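 Progress curves of AMC release (380/460 nm) over at least 3 inactivation half-times were fitted to kobs, reported as kobs/[I] or, via 1/[I] vs 1/kobs, kirr, KI (substrate-corrected) and kirr/KI.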

[10] = tested on: calpain; assay: Inhibition (inactivation) of calpain, Suc-Leu-Tyr-AMC; assay type: biochemical; conditions: pH 7.5, 5 mM CaCl2, 25° C.; for kobs /[I]*: values marked * (or %)
Method: The inhibitors were tested against calpain at 1 or 2% as for the other enzymes. The reaction conditions were 50 mM Tris, pH 7.5, 5 mM CaCl2, 2.5 mM DTT, assayed at 25° C. The substrate was 100 μM Suc-Leu-Tyr-AMC.

Compound | percentage inhibition, T. cruzi ([1]; 3 uM) | percentage inhibition, T. cruzi ([1]; 10 uM) | percentage inhibition, T. cruzi ([1]; 30 uM) | percentage inhibition, T. cruzi ([1]; 90 uM) | kirr [3] | Ki [3] | k/KI (kirr/KI) [3] | IC50 ([4]; cells printed in nM) | IC50 ([5]; cells printed in nM) | percentage inhibition, T. brucei ([6]; 3 uM) | percentage inhibition, T. brucei ([6]; 10 uM) | percentage inhibition, T. brucei ([6]; 30 uM) | percentage inhibition, T. brucei ([6]; 90 uM) | percentage inhibition, L. donovani ([8]; 3 uM) | percentage inhibition, L. donovani ([8]; 10 uM) | percentage inhibition, L. donovani ([8]; 30 uM) | percentage inhibition, L. donovani ([8]; 90 uM) | k/KI (kirr/KI) [9] | kobs /[I]* [10] | IC50 ([5]; cells printed in μM) | further results
O=C(NCCCC[C@@H](/C=C/S(=O)(=O)c1ccccc1)NC(=O)[C@H](Cc1ccccc1)NC(=O)N1CCOCC1)OCc1ccccc1 [Mu-Phe-Lys(Z)VSPh, (S)-(E)-7-(benzyloxycarbonyl)amino-3-(4-morpholinecarbonylphenylalanyl)-amino-1-phenylsulfonyl-1-heptene] | 0% | 0% | 0% | 0% | 0.18 s⁻¹ | 4.7 µM | 39,200 M^-1 sec^-1 | 80 nM | 100 nM | 29.9% | 81.3% | 100% | 100% | 0% | 0% | 0% | 0% | 120,000 M^-1 sec^-1 |  |  | kirr [2]: 0.14 s⁻¹; Ki ([2]; corrected for substrate): 0.054 µM; k/KI (kirr/KI) ([2]; values without asterisk, 25° C., pH 6.5): 2,600,000 M^-1 sec^-1; ED50, T. brucei [6]: 3.64 µM; percentage inhibition, T. brucei ([6]; 1 uM): 19.8%; k/KI (kirr/KI) ([7]; values without asterisk): 44,500 M^-1 sec^-1; kirr [9]: 0.45 s⁻¹; Ki [9]: 3.8 µM
(S)-(E)-3-(4-morpholinecarbonylphenylalanyl)amino-1-methylsulfonyl-1-butene [Mu-Phe-AlaVSMe] | 0% | 0% | 11.2% | 12.2% | 0.19 s⁻¹ | ~1000 µM | 300 M⁻¹ s⁻¹ |  |  | 0% | 0% | 0% | 0% | 0% | 0% | 0% | 6.7% |  | < 50 M⁻¹ s⁻¹ | 20000 nM | kobs /[I]* (approximate second-order inactivation constant) ([2]; 25° C., pH 6.5): 26,000 M^-1 sec^-1; kobs /[I]* (approximate second-order inactivation constant) ([7]; values marked *): 700 M⁻¹ s⁻¹
(S)-(E)-4-(4-morpholinecarbonylphenylalanyl)amino-6- phenyl-2-hexenoic acid [Mu-Phe-HphVA] |  |  |  |  | 0.038 s⁻¹ | 85 µM | 450 M⁻¹ s⁻¹ |  |  |  |  |  |  |  |  |  |  |  |  | 1000 nM | IC50 ([4]; cells printed in μM): 2000 nM
ethyl (S)-(E)-4-(4-morpholinecarbonylphenylalanyl)-amino-6-phenyl-2-hexenoate [Mu-Phe-HphVEOEt] |  |  |  |  | 0.19 s⁻¹ | 19 µM | 10,100 M^-1 sec^-1 | 300 nM | 300 nM |  |  |  |  |  |  |  |  | 47,500 M^-1 sec^-1 |  |  | kobs /[I]* (approximate second-order inactivation constant) ([7]; values marked *): 80,400 M^-1 sec^-1; kirr [9]: 0.10 s⁻¹; Ki [9]: 2.2 µM
(S)-(E)-3-(4-morpholinecarbonylphenylalanyl)amino-1-methylsulfonyl-4-phenyl-1-butene [Mu-Phe-PheVSMe] |  |  |  |  |  |  |  |  |  |  |  |  |  |  |  |  |  |  | 260 M⁻¹ s⁻¹ | 2000 nM | kobs /[I]* (approximate second-order inactivation constant) [9]: 100 M⁻¹ s⁻¹
(S)-(E)-Benzyl 4-(4-morpholinecarbonylphenylalanyl)amino-6-phenyl-2-hexenamide [Mu-Phe-HphVAMBzl] | 0% | 0% | 0% | 5.83% |  |  | < 100 M⁻¹ s⁻¹ |  | 200 nM | 0% | 0% | 0% | 0% | 0% | 0% | 14.2% | 23.3% |  | < 50 M⁻¹ s⁻¹ |  | kobs /[I]* (approximate second-order inactivation constant) ([2]; 25° C., pH 6.5): 10,800 M^-1 sec^-1; IC50 ([4]; cells printed in μM): 2000 nM; kobs /[I]* (approximate second-order inactivation constant) ([7]; values marked *): 70,200 M^-1 sec^-1; kobs /[I]* (approximate second-order inactivation constant) [9]: 2800 M⁻¹ s⁻¹
CC(C)(C)OC(=O)C[C@@H](/C=C/S(C)(=O)=O)NC(=O)OC(C)(C)C [Boc-Asp(O-tBu)VSMe, (S)-(E)-3-tert-butoxycarbonylamino-4-tert-butoxycarbonyl-1-methylsulfonyl-1-butene] |  |  |  |  |  |  | 0 M⁻¹ s⁻¹ |  |  |  |  |  |  |  |  |  |  | 0 M⁻¹ s⁻¹ |  |  | inhibition at 3 µM ([1]; Trypanosoma cruzi, Macrophage, 3 uM, read-out: percentage inhibition, T. cruzi): 0%; inhibition at 10 µM ([1]; Trypanosoma cruzi, Macrophage, 10 uM, read-out: percentage inhibition, T. cruzi): 0%; inhibition at 30 µM ([1]; Trypanosoma cruzi, Macrophage, 30 uM, read-out: percentage inhibition, T. cruzi): 0%; inhibition at 90 µM ([1]; Trypanosoma cruzi, Macrophage, 90 uM, read-out: percentage inhibition, T. cruzi): 9.9%; k/KI (kirr/KI) ([10]; values without asterisk): 0 M⁻¹ s⁻¹; inhibition at 3 µM ([6]; Trypanosoma brucei, 3 uM, read-out: percentage inhibition, T. brucei): 0%; inhibition at 10 µM ([6]; Trypanosoma brucei, 10 uM, read-out: percentage inhibition, T. brucei): 0%; inhibition at 30 µM ([6]; Trypanosoma brucei, 30 uM, read-out: percentage inhibition, T. brucei): 0%; inhibition at 90 µM ([6]; Trypanosoma brucei, 90 uM, read-out: percentage inhibition, T. brucei): 0%; kinact/KI ([7]; pH 6.2, values marked *, read-out: kobs /[I]* (approximate second-order inactivation constant)): 800 M⁻¹ s⁻¹; inhibition at 3 µM ([8]; Leishmania donovani, Peritoneal macrophage, 3 uM, read-out: percentage inhibition, L. donovani): 0%; inhibition at 10 µM ([8]; Leishmania donovani, Peritoneal macrophage, 10 uM, read-out: percentage inhibition, L. donovani): 0%; inhibition at 30 µM ([8]; Leishmania donovani, Peritoneal macrophage, 30 uM, read-out: percentage inhibition, L. donovani): 13.4%; inhibition at 90 µM ([8]; Leishmania donovani, Peritoneal macrophage, 90 uM, read-out: percentage inhibition, L. donovani): 12.9%
COC(=O)C1CCCN1C(=O)C(CC(C)C)NC(=O)/C=C/[C@H](CCc1ccccc1)NC(=O)[C@H](Cc1ccccc1)NC(=O)N1CCOCC1 (stereo partly drawn) [Mu-Phe-HphVAMLeu-ProOMe, (S)-(E)-(N-leucylprolinemethylester)-4-(4-morpholinecarbonylphenyl-alanyl)amino-6-phenyl-2-hexenamide] |  |  |  |  |  |  |  | 600 nM | 80 nM |  |  |  |  |  |  |  |  |  |  |  | 
CC(N)C(=O)NC(C=CS(C)(=O)=O)Cc1ccccc1 (stereo not shown) [HCl.Ala-PheVSMe] |  |  |  |  |  |  |  |  |  |  |  |  |  |  |  |  |  |  |  | > 100000 nM | 

— patent US6287840A (Axys Pharmaceuticals, Inc., priority 1999, dated 2001)
